{
  "source": "patent US9522928B2",
  "about": "“Mannosylated compounds useful for the prevention and the treatment of infectious diseases” (UNIVERSITE DE STRASBOURG, priority 2011, dated 2016)",
  "assay_type_in_all_cases": "cell-based",
  "key": {"DC-SIGN": {"molecular_target": "T1, DC-SIGN (Homo sapiens, UniProt Q9NNX6)", "T1 construct": "endogenous in cells; host or cells: human monocyte-derived dendritic cells (GM-CSF/IL-4 differentiated)", "T1 sequence (Q9NNX6 1-404)": "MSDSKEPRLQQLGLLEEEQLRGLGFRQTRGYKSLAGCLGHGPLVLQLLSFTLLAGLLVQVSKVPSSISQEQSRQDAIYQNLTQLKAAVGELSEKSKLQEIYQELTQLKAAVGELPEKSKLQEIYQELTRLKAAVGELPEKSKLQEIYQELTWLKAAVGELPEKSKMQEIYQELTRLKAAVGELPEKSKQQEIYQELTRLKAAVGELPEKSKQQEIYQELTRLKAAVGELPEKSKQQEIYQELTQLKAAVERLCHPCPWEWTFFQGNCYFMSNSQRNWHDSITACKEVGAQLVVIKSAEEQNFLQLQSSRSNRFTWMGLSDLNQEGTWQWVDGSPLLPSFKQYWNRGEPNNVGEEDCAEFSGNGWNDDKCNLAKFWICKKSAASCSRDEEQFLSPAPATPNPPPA", "assay": "DC-SIGN internalization in DCs (flow cytometry, confocal microscopy)", "conditions": "100 μM", "protocol": "To visualize the effect on DC-SIGN, cells were either left untreated or exposed to TriMan (100 μM final) for 45 min at 37° C., fixed with 4% paraformaldehyde for 15 min at room temperature, washed, permeabilized with 0.1% Triton X-100 for 3 min at 20° C., washed and labeled with an anti-DC-SIGN primary monoclonal antibody clone 111H2 (Canard, et al., 2011), followed by a secondary FITC-labeled anti-mouse-IgG (Southern Biotech). Nuclei were labeled with DAPI. Slides were mounted and processed as above.\nMoreover, expression of DC-SIGN was visualized with a fluorescently-labeled antibody by confocal fluorescence microscopy. In untreated cells, DC-SIGN was mostly located at the cell membrane, in agreement with previous reports (Engering, et al., 2002). Upon exposure to TriManC24, DC-SIGN was detected both at the cell membrane and within the cytoplasm. […] The effect of TriManC24 on DC-SIGN cellular localization was assessed by flow cytometry analyses of DCs, in the absence or presence of TriManC24."}, "HIV-1 X4": {"test_system": "HIV-1 X4", "assay": "HIV-1 X4 trans-infection of MAGI-CCR5 cells mediated by DCs", "protocol": "ManC1, […] (comparative) and compounds of the invention (ManC24, ManC17, TriManC24, TriDiManC24, TriManinsatC24 and ManinsatC24) were serially diluted in water. Human DCs (1×10^5 in 200 μl ) were pre-treated with different concentrations of compounds, or mannan (Sigma) or culture medium alone, in RPMI 1640 medium containing 10% FBS for 45 min at 37° C., prior infection with HIV-1 (100 ng of p24Gag) for 3 h. Excess free virus and molecules were removed by three washes. DCs were then cocultured with MAGI -CCR5 cells (1×10^5) at 37° C. plated in a 48-well plate. After two days, viral infection of MAGI-CCR5 cells was quantitated following beta-galactosidase assays and enumerating blue cells by light microscopy.\nThe IC50 were determined by serial dilution of each compound. The trans-infection assays were repeated a minimum of three times, and the IC50 determined using KaleidaGraph.\nTo investigate the ability of the compounds of the invention to inhibit HIV-1 trans infection, we chose to infect human DCs in order to best mimic in vivo conditions. […] This procedure allows precise quantification of HIV-1 replication in reporter MAGI-CCR5 cells by detection of beta-galactosidase activity. […] Upon viral entry leading to viral Tat expression and activation of the LTR, these cells permit quantification of HIV trans-infection after two days."}, "HIV-1 (R5 strain)": {"test_system": "HIV-1 (R5 strain)", "assay": "HIV-1 cis-infection and replication in DCs (p24Gag ELISA)", "conditions": "10 and 100 μM, p24Gag in supernatant", "protocol": "Human monocyte-derived dendritic cells (2×10^5; 300 μL) in RPMI 1640 medium containing 10% FBS were pre-treated with either anti-DC-SIGN antibodies (clone AZND1, Beckman-Coulter; 10 μg/mL) or compounds TriManC24 and TriManC24insat (10 and 100 μM) for 30 min at 37° C., before inoculation with HIV-1 (R5 strain; 100 ng of p24Gag). After 3 h, cells were pelleted and extensively washed to remove excess virus and compounds. On day 2, 4 and 7 after infection, cells were pelleted, an aliquot of the supernatant was removed and kept at −20° C., and half of the supernatant was replaced with fresh medium. Viral replication was monitored by measuring p24Gag levels in the culture supernatant by an enzyme-linked immunosorbent assay (ELISA, Innogenetics). […] As shown in the case of Dengue virus, the compounds of the invention may also interfere with HIV cis-infection. […] Discussion"}},
  "note": "Entries after “also recorded” stand apart in the source; their conditions may differ.",
  "data": [
    {"smiles": "CCCCCCCCCCCCCCCCCCCCCCCCC(=O)NC(COCCC(=O)NCCOCCOCCOCCOC1OC(CO)C(O)C(O)C1O)(COCCC(=O)NCCOCCOCCOCCOC1OC(CO)C(O)C(O)C1O)COCCC(=O)NCCOCCOCCOCCOC1OC(CO)C(O)C(O)C1O", "note": "(stereo not drawn) [TriManC24]", "values": [
      {"measurement": "DC-SIGN receptors internalized", "setting": "DC-SIGN", "value": "about 20%"},
      {"measurement": "residual level of trans-infection", "setting": "HIV-1 X4", "value": 15, "unit": "%"},
      {"measurement": "inhibition of HIV-1 cis-infection / replication in DCs (in words)", "setting": "HIV-1 (R5 strain)", "value": "decreases the amount of HIV R5 replication; also recorded: inhibit"}
    ]}
  ]
}
